Measurements reported in the supplement of paper PMC10307832.

Assays:
Assay in all cases: relative viability (nuclei count vs DMSO), 5 days (fraction); higher = more cells survive
Pictilisib + Bortezomib = compound: CS(=O)(=O)N1CCN(Cc2cc3nc(-c4cccc5[nH]ncc45)nc(N4CCOCC4)c3s2)CC1 [Pictilisib] + CC(C)C[C@H](NC(=O)[C@H](Cc1ccccc1)NC(=O)c1cnccn1)B(O)O [Bortezomib] (partner 0.002 µM)
How it was run: (§1)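 Relative viability divides the nuclei count in treated wells by that in vehicle wells. Lung cancer cell lines were seeded in 1536-well plates, dosed by pin tool the next day, and fixed and stained after 5 days in one step with final 0.05% Triton X-100, 1% formaldehyde and 1 ug/ml Hoechst. Dosing was a single drug or a fixed anchor-drug dose plus five library-drug doses (not always all listed) in √10 steps, and values are medians of duplicate plates imaged at 4×.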

MK-2206 + Pemetrexed = compound: NC1(c2ccc(-c3nc4ccn5c(=O)[nH]nc5c4cc3-c3ccccc3)cc2)CCC1 [MK-2206] + Nc1nc2[nH]cc(CCc3ccc(C(=O)N[C@@H](CCC(=O)O)C(=O)O)cc3)c2c(=O)[nH]1 [Pemetrexed] (partner 0.2 µM)
How it was run: as §1

MK-2206 + Luminespib = compound: NC1(c2ccc(-c3nc4ccn5c(=O)[nH]nc5c4cc3-c3ccccc3)cc2)CCC1 [MK-2206] + CCNC(=O)c1noc(-c2cc(C(C)C)c(O)cc2O)c1-c1ccc(CN2CCOCC2)cc1 [Luminespib] (partner 0.01 µM)
How it was run: as §1

Pictilisib + Pemetrexed = compound: CS(=O)(=O)N1CCN(Cc2cc3nc(-c4cccc5[nH]ncc45)nc(N4CCOCC4)c3s2)CC1 [Pictilisib] + Nc1nc2[nH]cc(CCc3ccc(C(=O)N[C@@H](CCC(=O)O)C(=O)O)cc3)c2c(=O)[nH]1 [Pemetrexed] (partner 0.2 µM)
How it was run: as §1

Pictilisib + Lapatinib = compound: CS(=O)(=O)N1CCN(Cc2cc3nc(-c4cccc5[nH]ncc45)nc(N4CCOCC4)c3s2)CC1 [Pictilisib] + CS(=O)(=O)CCNCc1ccc(-c2ccc3ncnc(Nc4ccc(OCc5cccc(F)c5)c(Cl)c4)c3c2)o1 [Lapatinib] (partner 2 µM)
How it was run: as §1

| Cell Line | relative viability (Pictilisib + Bortezomib; first compound 0.02 µM) | relative viability (Pictilisib + Bortezomib; first compound 0.06325 µM) | relative viability (Pictilisib + Bortezomib; first compound 0.6325 µM) | relative viability (Pictilisib + Bortezomib; first compound 2 µM) | relative viability (MK-2206 + Pemetrexed; first compound 0.01 µM) | relative viability (MK-2206 + Pemetrexed; first compound 0.03162 µM) | relative viability (MK-2206 + Pemetrexed; first compound 0.3162 µM) | relative viability (MK-2206 + Pemetrexed; first compound 1 µM) | relative viability (MK-2206 + Luminespib; first compound 0.01 µM) | relative viability (MK-2206 + Luminespib; first compound 0.03162 µM) | relative viability (MK-2206 + Luminespib; first compound 0.3162 µM) | relative viability (MK-2206 + Luminespib; first compound 1 µM) | relative viability (Pictilisib + Pemetrexed; first compound 0.02 µM) | relative viability (Pictilisib + Pemetrexed; first compound 0.06325 µM) | relative viability (Pictilisib + Pemetrexed; first compound 0.6325 µM) | relative viability (Pictilisib + Pemetrexed; first compound 2 µM) | relative viability (Pictilisib + Lapatinib; first compound 0.02 µM) | relative viability (Pictilisib + Lapatinib; first compound 0.06325 µM) | relative viability (Pictilisib + Lapatinib; first compound 0.6325 µM) | relative viability (Pictilisib + Lapatinib; first compound 2 µM) |
| --- | --- | --- | --- | --- | --- | --- | --- | --- | --- | --- | --- | --- | --- | --- | --- | --- | --- | --- | --- | --- |
| NCI-H322M | 1.11 | 1.2 | 0.873 | 0.907 | 0.64 | 0.634 | 0.666 | 0.679 | 0.91 | 0.95 | 0.825 | 0.882 | 0.541 | 0.616 | 0.584 | 0.239 | 0.57 | 0.588 | 0.493 | 0.423 |
| BEN | 0.811 | 0.941 | 0.762 | 0.489 | 0.736 | 0.767 | 0.679 | 0.697 | 0.404 | 0.484 | 0.274 | 0.495 | 0.809 | 0.858 | 0.81 | 0.546 | 0.715 | 0.755 | 0.844 | 0.498 |
| NCI-H2009 | 1.06 | 1.05 | 0.871 | 0.671 | 1.05 | 1.01 | 1.05 | 1.03 | 1.01 | 0.992 | 1.06 | 1.01 | 1.04 | 1.12 | 1.17 | 0.875 | 1.06 | 0.932 | 0.858 | 0.844 |
| LC-2-ad | 1.05 | 1 | 0.633 | 0.56 | 0.282 | 0.254 | 0.28 | 0.25 | 1.01 | 1.01 | 1.24 | 1.08 | 0.277 | 0.278 | 0.272 | 0.23 | 0.989 | 1.13 | 0.506 | 0.439 |
| NCI-H1437 | 0.582 | 0.488 | 0.532 | 0.231 | 0.321 | 0.325 | 0.334 | 0.258 | 1.13 | 1.13 | 0.855 | 1.27 | 0.317 | 0.318 | 0.274 | 0.215 | 0.768 | 0.859 | 0.605 | 0.313 |
| NCI-H3122 | 0.99 | 1.05 | 1.04 | 0.601 | 0.202 | 0.197 | 0.203 | 0.193 | 0.118 | 0.1 | 0.0816 | 0.084 | 0.189 | 0.196 | 0.192 | 0.172 | 1.01 | 1.15 | 1.13 | 0.737 |
| NCI-H1563 | 0.992 | 0.839 | 0.605 | 0.554 | 0.746 | 0.771 | 0.697 | 0.744 | 0.528 | 0.518 | 0.577 | 0.477 | 0.742 | 0.764 | 0.635 | 0.45 | 1 | 0.948 | 0.696 | 0.564 |
| NCI-H1734 | 0.995 | 0.903 | 0.585 | 0.335 | 0.393 | 0.391 | 0.401 | 0.391 | 0.194 | 0.168 | 0.193 | 0.148 | 0.39 | 0.417 | 0.39 | 0.355 | 1.1 | 1.11 | 0.653 | 0.41 |
| HCC-15 | 1.01 | 1.01 | 1.02 | 0.899 | 0.254 | 0.198 | 0.218 | 0.204 | 0.404 | 0.232 | 0.413 | 0.292 | 0.224 | 0.224 | 0.224 | 0.202 | 0.936 | 0.91 | 0.789 | 0.692 |
| NCI-H2405 | 1.03 | 0.961 | 0.919 | 0.651 | 1.01 | 1.07 | 1.02 | 0.978 | 0.713 | 0.853 | 0.532 | 0.559 | 1.3 | 1.01 | 0.778 | 0.416 | 1.2 | 1.05 | 0.801 | 0.505 |
| NCI-H1993 | 0.984 | 1.04 | 0.601 | 0.448 | 0.727 | 0.555 | 0.516 | 0.477 | 0.44 | 0.827 | 0.671 | 0.565 | 0.608 | 0.605 | 0.449 | 0.442 | 0.878 | 0.895 | 0.783 | 0.705 |
| NCI-H1650 | 0.199 | 0.205 | 0.207 | 0.172 | 0.3 | 0.379 | 0.319 | 0.347 | 0.185 | 0.182 | 0.215 | 0.183 | 0.325 | 0.361 | 0.358 | 0.302 | 1.02 | 0.806 | 0.672 | 0.51 |
| NCI-H460 | 1.1 | 1.36 | 0.57 | 0.111 | 0.0681 | 0.0647 | 0.0757 | 0.0577 | 0.035 | 0.0282 | 0.0298 | 0.024 | 0.0594 | 0.0727 | 0.0616 | 0.0599 | 1.08 | 1.02 | 0.548 | 0.118 |
| NCI-H1651 | 0.948 | 0.939 | 0.911 | 0.707 | 0.562 | 0.575 | 0.621 | 0.513 | 0.865 | 0.888 | 0.808 | 0.965 | 0.516 | 0.591 | 0.519 | 0.38 | 0.919 | 0.721 | 0.568 | 0.424 |
| NCI-H1975 | 0.358 | 0.443 | 0.284 | 0.239 | 0.314 | 0.286 | 0.331 | 0.262 | 0.126 | 0.199 | 0.204 | 0.144 | 0.304 | 0.301 | 0.272 | 0.193 | 0.94 | 0.781 | 0.541 | 0.212 |
| NCI-H2126 | 1.05 | 1.15 | 1.07 | 0.923 | 0.708 | 0.653 | 0.61 | 0.701 | 0.9 | 0.877 | 0.856 | 0.752 | 0.692 | 0.661 | 0.518 | 0.379 | 0.801 | 0.748 | 0.63 | 0.462 |
